# Source: patent US20250051324A1, “PARP INHIBITOR, PHARMACEUTICAL COMPOSITION COMPRISING SAME, AND USE THEREOF” (KEYTHERA (SUZHOU) BIO-PHARMACEUTICALS CO., LIMITED, priority 2021, published 2025)
# Experiments:
# [1] = test system: MDA-MB-436 breast cancer cells; assay: Cell proliferation assay, MDA-MB-436; type: cell-based; conditions: Homo sapiens, MDA-MB-436, 168 h, read-out: MDA-MB-436 Cell IC50
# In short: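 Cells seeded 16 h, then exposed to a 9-point 1:3 compound dilution series for 7 days at 37° C., 5% CO2; DMSO-matched and cell-free controls. Viability by CellCounting-Lite luminescence; IC50 from log concentration versus % inhibition.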
# PARP2 = PARP2 (Homo sapiens (Human), UniProt Q9UGN5); assay: PARP2 trapping assay; type: biochemical; conditions: read-out: Inhibitory Effect on PARP2 Trapping IC50
# Experimental: [table] […] 1. A 4× enzyme reaction mixture, comprising PARP1, PARP2, and GST-Tb antibody, was prepared with the buffer and 4 μL of the enzyme reaction mixture was added to a 384-well plate. 2. A 4×PARP1 and PARP2 probe reaction mixture was prepared with the buffer and 4 μL of the probe reaction mixture was added to the 384-well plate. 3. A series of gradient-diluted compounds were prepared and 4 μL of the diluted compounds were added to the 384-well plate, and incubated at room temperature for 45 minutes. 4. After incubation, 4 μL of 4×NAD reaction mixture was added to the 384-well plate and incubated at room temperature for 10 minutes. 5. After incubation, the plate was read using a plate reader. 6. Data Analysis: The percentage inhibition rate was calculated as follows: Inhibition Rate (%)=(Reading of Compound Group−Reading of Blank Group)/(Reading of Vehicle Control Group−Reading of Blank Group).
# [2] = test system: UWB1.289 ovarian cancer cells; assay: Cell proliferation assay, UWB1.289; type: cell-based; conditions: UWB1289, 168 h, read-out: UWB1.289 Cell IC50
# Experimental: Experimental Materials: MDA-MB-436 or UWB1.289 cell lines were purchased from Cobioer Biosciences Co. Ltd. (Nanjing, China). The STR identification results were a complete match, and mycoplasma testing was negative. MDA-MB-436 cells were cultured in DMEM complete medium containing 10% fetal bovine serum, 1% penicillin-streptomycin, 1% insulin, and 16 μg/mL glutathione; UWB1.289 cells were cultured in RMPI1640 complete medium containing 10% fetal bovine serum and 1% penicillin-streptomycin.
# 1. MDA-MB-436 or UWB1.289 cells were cultured in the aforementioned medium (culture conditions: 37° C., 5.0% CO2 in air) until they reached the logarithmic growth phase. The cells were then digested with trypsin containing 0.25% EDTA, centrifuged at 1000 rpm, and the supernatant was discarded. Cell culture medium was added, and the cell suspension was adjusted to 2×10^4/mL after counting. 135 μL of the cell suspension per well was taken and cultured in a 96-well cell culture plate for 16 hours (culture conditions: 37° C., 5.0% CO2 in air).
# 2. The test compounds, stored at a concentration of 10 mM, were diluted 2.5 times with DMSO and then serially diluted in a 1:3 gradient (9 gradients). The gradient-diluted samples were further diluted 40 times with serum-free medium, and 15 μL of each was added to the 96-well cell culture plate. The positive control group received serum-free medium containing the same concentration of DMSO, and the negative control group received medium without cells. The cells were then cultured for an additional 7 days.
# 3. After the culture period, the cell culture plate was placed at room temperature for 30 minutes. Then, 100 μL of CellCounting-Lite 2.0 reagent (Vazyme, #DD1101) was added to each well, mixed thoroughly, and incubated in the dark at room temperature for 10 minutes. The luminescence signal was read using a Synergy HTX multi-mode reader.
# 4. Data analysis was performed using GraphPad Prism 8.0 software. The inhibition rate (%) was calculated as 100*(average luminescence signal of the positive control group−luminescence signal of the compound)/(average luminescence signal of the positive control group−average luminescence signal of the negative control group). The IC50 value was obtained by plotting the logarithm of the compound concentration against the percentage inhibition rate.
# PARP1 = PARP1 (Homo sapiens (Human), UniProt P09874); assay: PARP1 trapping assay; type: biochemical; conditions: read-out: Inhibitory Effect on PARP1 Trapping IC50
# In short: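 PARP1 and PARP2 with GST-Tb antibody and probe incubated with serially diluted compounds for 45 min at room temperature, then NAD added for 10 min before plate reading. Percent inhibition derived from compound, blank and vehicle control readings.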
# [3] = Evaluation of pharmacokinetics in rats; type: in vivo; conditions: male, SD, rat, plasma, 1 mg/kg, oral gavage (PO, 1 mpk)
# From the text: Test Animals: 6-8 Week Old Male SD Rats
# Food was restored two hours after dosing.
# [4] = test system: peripheral blood reticulocytes; assay: Effect of compound on rat reticulocytes; type: in vivo; conditions: 4 days
# Experimental: Test Objective: The effect of the compound on peripheral blood reticulocytes was evaluated to determine its impact on bone marrow hematopoietic function.
# Test Compounds: Olaparib, Compound 1
# Experimental Animals: Male Sprague Dawley rats were purchased from Beijing Charles River Laboratory Animal Technology Co., Ltd. Housing and Management: The experimental animals were housed in SPF-grade, temperature- and humidity-controlled clean rooms, using individually ventilated cages (IVC) with no more than 5 rats per cage. Temperature/humidity was controlled within the range of (23±3)° C./40-70%. Feed and water: SPF-grade rat feed, sterilized by cobalt-60 irradiation. Drinking water was ultrafiltered and autoclaved. Animals had free access to sterile food and water. Animal identification: ear tags.
# Experimental Method: The experiment was divided into the following 5 groups: vehicle control group; Olaparib 100 mg/kg; Compound 1 0.1 mg/kg; Compound 1 0.3 mg/kg; and Compound 1 1.0 mg/kg. All treatments were administered orally by gavage once daily for 4 days. Blood samples were collected before and after treatment to measure peripheral blood reticulocyte counts.
# PARP2, sequence (Q9UGN5 whole entry): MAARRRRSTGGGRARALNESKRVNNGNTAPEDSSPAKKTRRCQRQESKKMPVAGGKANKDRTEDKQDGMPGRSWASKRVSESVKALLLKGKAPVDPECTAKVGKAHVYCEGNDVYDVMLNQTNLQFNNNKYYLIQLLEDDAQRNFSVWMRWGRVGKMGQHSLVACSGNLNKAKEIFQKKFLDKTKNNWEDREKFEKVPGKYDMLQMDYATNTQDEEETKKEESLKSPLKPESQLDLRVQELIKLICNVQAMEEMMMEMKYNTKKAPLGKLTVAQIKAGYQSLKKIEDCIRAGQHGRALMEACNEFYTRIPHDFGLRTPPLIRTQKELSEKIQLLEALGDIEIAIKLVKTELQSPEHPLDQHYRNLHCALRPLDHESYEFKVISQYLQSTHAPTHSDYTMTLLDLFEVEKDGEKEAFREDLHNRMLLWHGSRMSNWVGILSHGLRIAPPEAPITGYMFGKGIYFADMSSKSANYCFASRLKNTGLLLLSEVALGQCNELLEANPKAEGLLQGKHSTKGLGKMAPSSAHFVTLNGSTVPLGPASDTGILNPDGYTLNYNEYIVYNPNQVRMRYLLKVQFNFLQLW
# PARP1, sequence (P09874 whole entry): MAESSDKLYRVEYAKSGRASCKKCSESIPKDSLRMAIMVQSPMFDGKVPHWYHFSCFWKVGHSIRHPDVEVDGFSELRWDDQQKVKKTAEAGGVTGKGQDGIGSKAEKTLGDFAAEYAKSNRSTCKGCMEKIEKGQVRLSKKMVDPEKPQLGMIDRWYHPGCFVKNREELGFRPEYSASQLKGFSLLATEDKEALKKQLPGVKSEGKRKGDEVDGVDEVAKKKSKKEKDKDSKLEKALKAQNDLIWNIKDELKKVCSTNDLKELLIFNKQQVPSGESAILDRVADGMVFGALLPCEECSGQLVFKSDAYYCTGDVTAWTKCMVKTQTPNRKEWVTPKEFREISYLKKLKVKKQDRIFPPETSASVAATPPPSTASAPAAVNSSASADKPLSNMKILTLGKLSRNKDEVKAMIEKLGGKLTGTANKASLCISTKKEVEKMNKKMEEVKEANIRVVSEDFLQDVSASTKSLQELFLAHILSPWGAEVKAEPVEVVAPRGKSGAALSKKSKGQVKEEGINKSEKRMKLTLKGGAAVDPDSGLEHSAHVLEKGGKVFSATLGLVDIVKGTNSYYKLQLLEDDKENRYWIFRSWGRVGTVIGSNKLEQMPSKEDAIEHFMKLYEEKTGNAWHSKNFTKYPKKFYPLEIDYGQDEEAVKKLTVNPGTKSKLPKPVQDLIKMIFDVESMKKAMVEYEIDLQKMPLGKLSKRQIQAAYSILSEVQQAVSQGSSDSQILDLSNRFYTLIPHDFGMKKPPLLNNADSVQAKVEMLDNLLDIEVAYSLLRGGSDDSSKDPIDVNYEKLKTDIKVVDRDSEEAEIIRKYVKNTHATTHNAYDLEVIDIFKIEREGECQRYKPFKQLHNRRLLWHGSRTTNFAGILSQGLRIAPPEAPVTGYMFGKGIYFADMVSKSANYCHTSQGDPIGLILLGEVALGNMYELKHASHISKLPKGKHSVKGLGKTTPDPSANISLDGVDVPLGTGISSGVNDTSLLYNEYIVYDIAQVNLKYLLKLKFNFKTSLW
smiles,measurement,setting,value
"CNC(=O)c1ccc(N2CCN(Cc3cnc4c(C)c(C(F)(F)F)c(=O)[nH]c4c3)CC2)cn1 [Compound 1, N-methyl-5-(4-((8-methyl-6-oxo-7-(trifluoromethyl)-5,6-dihydro-1,5-naphthyridin-3-yl)methyl)piperazin-1-yl)picolinamide]",IC50,[1],1.59 nM
same,IC50,PARP2,164 nM
same,IC50,[2],0.66 nM
same,IC50,PARP1,1.33 nM
same,AUC(0-inf),[3],11300 ng·h/mL
same,Cmax,[3],1740 ng/mL
same,half-life,[3],4.33 h
same,Reticulocyte Inhibition Rate,[4]; 0.1 mg/kg oral once daily,12.2%
same,Reticulocyte Inhibition Rate,[4]; 0.3 mg/kg oral once daily,33.8%
same,Reticulocyte Inhibition Rate,[4]; 1.0 mg/kg oral once daily,41.9%
same,Effect on peripheral blood reticulocytes (in words),"[4]; 0.1, 0.3 and 1.0 mg/kg, p>0.05",no significant effect
